Measurements taken from paper PMC5149029, “New Aspects of Silibinin Stereoisomers and their 3-O-galloyl Derivatives on Cytotoxicity and Ceramide Metabolism in Hep G2 hepatocarcinoma Cell Line” (Iranian Journal of Pharmaceutical Research : IJPR, 2016).

Columns and labels:
[1] = target: T1, glucosyl ceramide synthase (GCS) (Homo sapiens, UniProt Q16739); assay: GCS activity assay (C6-NBD-ceramide, HPLC); format: cell-based; settings: for GCS activity, effect of treatment: Hep G2, 0-200 µM
T1 construct: endogenous in cells; host or cells: Hep G2
T1 sequence (Q16739 1-394): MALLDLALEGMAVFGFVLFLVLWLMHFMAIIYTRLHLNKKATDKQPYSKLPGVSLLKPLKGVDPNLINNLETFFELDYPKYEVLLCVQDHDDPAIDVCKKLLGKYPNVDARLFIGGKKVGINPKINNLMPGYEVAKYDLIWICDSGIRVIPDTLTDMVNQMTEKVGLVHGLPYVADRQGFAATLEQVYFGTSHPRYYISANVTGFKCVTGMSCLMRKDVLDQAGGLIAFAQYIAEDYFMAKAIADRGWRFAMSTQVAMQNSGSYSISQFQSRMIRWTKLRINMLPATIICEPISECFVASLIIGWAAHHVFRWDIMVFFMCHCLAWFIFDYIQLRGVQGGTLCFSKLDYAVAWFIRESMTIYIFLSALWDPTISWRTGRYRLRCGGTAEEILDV
Method: (§1) The cell line was grown in RPMI-1640 medium supplemented with L-glutamine 2 mM, HEPESNa 25 mM, penicillin 100 U/mL, streptomycin 100 μg/mL and 10% […] (FBS) at 37 °C in a humidified atmosphere containing 5% CO2. Hep G2 cells were seeded at 1 × 10^6 cells/mL and sub cultured every 2–3 days after 60–80% confluence was reached. To prepare the lysates cells attached to the culture plate were scraped off with a cell scraper and collected in a 1.5 mL tube by centrifugation. The cell pellets were rinsed with PBS, suspended in sterile water, and then lysed by sonication. For each experiment, the cells were treated separately with increasing concentrations of silibinin derivatives (0, 25, 50, 75, 100, 125, 150, 175 and 200 μM) and incubated for 48 h.
To determine GCS activities, the fluorescent acceptor substrate C6-4-nitrobenzo-2-oxa-1,3-diazole (NBD)-ceramide and a normal-phase HPLC were used. Acceptor substrate, 50 pM of C6-NBD-Cer and 6.5 nM of lecithin were mixed in 100 µL of ethanol and then the solvent was evaporated. Next, 10 µL of water was added and the mixture was sonicated to form liposomes. For the GCS assay, 50 µL of reaction mixture contains 500 µM UDP-Glc, 1mM EDTA, 10 µL of C6-NBD-Cer liposome and 20 µL of an appropriate amount of enzyme in lysis buffer. Addition of conduritol B epoxide (CBE) at 2.5 mM is effective at inhibiting the glycosidase activity. Standard assays were carried out at 37 °C for 1 h. The reaction was stopped by adding 200 µL of chloroform/methanol (2:1, v/v). After a few seconds of vortexing, 5 µL of 500 µM KCl was added and then centrifuged. After the organic phase had dried up, lipids were dissolved in 200 µL of isopropyl alcohol/n-hexane/H2O (55:44:1) and then transferred to a glass vial in auto sampler. A 100 µL aliquot of sample was automatically loaded onto a normal-phase column (Intersil SIL 150A-5, 4.6 x 250 mm, GL Sciences, Japan) and eluted with isopropyl alcohol/n-hexane/H2O (55:44:1) at a flow rate of 2.0 mL/min. Fluorescence was determined using a fluorescent detector (Hitachi L-7480) set to excitation and emission wavelengths of 470 and 530 nm, respectively. The fluorescent peaks were identified by comparing their retention times with those of standards ([37]).

Hep G2 cells = assay: Quantifying of total ceramide (HPLC, NDA derivatisation); format: cell-based, human; settings: for Ceramide content with respect to control: Hep G2, 50 µM and higher concentrations
Method: as §1
Sample (3 µL of cell extract cell lysate) was mixed with 3 µL of an ACDase assay solution (0.2 M citrate–phosphate buffer, pH 4.5, 0.3 M NaCl, 0.2% Igepal CA-630, 10% FBS, 50 ng/µL ACDase) and incubated at 37 °C for 1 h. The reaction was stopped by adding ethanol (1:5) and centrifuged for 5 min at 13,000 × g. 10 µL of the supernatant was transferred into 20 µL of 25 mM sodium borate buffer (pH 9.0) containing 1.25 mM sodium cyanide and 1.25 mM NDA. The reaction mixture was incubated at 50 °C for 10min, diluted with ethanol (1:4), and centrifuged for 5 min at 13,000 × g. 5 µL of the supernatant was applied to high-performance liquid chromatography (HPLC) for analysis. The HPLC system consisted of Waters 600 S controller, 616 pump, 474 scanning fluorescence detector, 717 auto sampler (Waters, Milford, MA) and BetaBasic-C18 (20 cm × 4.6 mm) column with 3 µM particle size (Thermo Electron, Bellefonte, PA) which was not temperature regulated. All chromatographic procedures were carried out at room temperature using a mobile phase of 90% methanol at a flow rate of 1.0 mL/min. The fluorescent derivatives were monitored at the excitation wavelength of 252 nm and the emission wavelength of 483 nm ([35]). […]

GCS activity, effect of treatment [1]	GCS activity (% of control) ([1]; Hep G2, 200 µM)	Structure (SMILES)	Ceramide content with respect to control (Hep G2 cells)	Maximum ceramide level compared to control (Hep G2 cells; Hep G2, 200 µM (the highest dose))
dose dependent inhibition		COc1cc([C@@H]2Oc3cc([C@H]4Oc5cc(O)cc(O)c5C(=O)[C@@H]4O)ccc3O[C@H]2CO)ccc1O [SB, silybin B]		
dose dependent inhibition		COc1cc([C@H]2Oc3cc([C@H]4Oc5cc(O)cc(O)c5C(=O)[C@@H]4O)ccc3O[C@@H]2CO)ccc1O [SA, silybin A]		
did not indicate any significant changes		COc1cc([C@H]2Oc3cc([C@H]4Oc5cc(O)cc(O)c5C(=O)[C@@H]4OC(=O)c4cc(O)c(O)c(O)c4)ccc3O[C@@H]2CO)ccc1O [SGA, 3-O-galloyl silybin A]	significant rises	
dose dependent inhibition	18 % of control	COc1cc([C@@H]2Oc3cc([C@H]4Oc5cc(O)cc(O)c5C(=O)[C@@H]4OC(=O)c4cc(O)c(O)c(O)c4)ccc3O[C@H]2CO)ccc1O [SGB, 3-O-galloyl silybin B]	significant rises	approximately 3.7 fold
